Usually IC50 stands for the point on the concentration scale where inhibition reaches its midpoint. A low value points to inhibition by little substance.

Experimental findings from patent US20240174647A1 (NEURON23, INC., priority 2022, published 2024) are described below.

For this experiment, the target named is wt human LRRK2, catalytic site (Homo sapiens (Human), UniProt Q5S007). As to the kind of experiment: TR-FRET LanthaScreen Tb Kinase Activity Assay (LRRK2 kinase inhibition). In kind it is biochemical. The note with it: 2 nM wt human LRRK2, 400 nM fluorescein-ERM (LRRKtide) peptide, 38 μM ATP, 120 minutes at room temperature. Here is the method:
The compounds in Table 1 were tested for their inhibitory effect on LRRK2 kinase according to the following procedures.
The protocol for basic TR-FRET LanthaScreen Tb Kinase Activity Assay inhibitor studies were as follows. LanthaScreen Kinase Activity Assays (ThermoFisher/USA) to evaluate inhibitors were performed by addition of 100 nL of test compound in corresponding DMSO dilutions/5 μL of kinase/fluorescein-ERM(LRRKtide) peptide mixture, 5 μL of ATP into 384 well small volume plates. After incubation for 120 minutes at room temperature, the detection reagents containing Tb-anti-pLRRKtide antibody were added to monitor phosphrylation level of peptide. Then, after 60 min minutes incubation at room temperature plates were read in Envision. Data analysis of emission ratios was according to LanthaScreen Tb Kinase Activity Assay protocol.
Kinase and assay components were adjusted to final concentrations according to the kit protocol. For LRRK2: 2 nM wt human LRRK2, catalytic site, catalytic site (ThermoFisher/USA), 400 nM peptide, 38 μM ATP in 1× Kinase Buffer A.
Basic protocol for TR-FRET LanthaScreen Tb Kinase Activity Assay inhibitor studies involved two steps: • Enzymatic step: Addition of 100 nL of test compound in corresponding DMSO dilutions, 5 μL of kinase/substrate mixture, 5 μL of ATP into 384 well small volume plates. Incubation for 120 minutes at room temperature. • Detection step: Addition of 10 μL EDTA & antibody, read plate after 60 minutes. Data analysis of emission ratios according to KinEASE assay protocol.
Kinase and assay components were adjusted to final concentrations according to the kit protocol.
In the table below, activity is provided as follows: +++=IC50 less than 50 nM; ++=IC50 between 50 nM and 200 nM; +=IC50>=200 nM
For orientation: In TR-FRET formats the signal depends on donor and acceptor labels being close together.

wt human LRRK2, catalytic site, sequence (Q5S007 1879-2138): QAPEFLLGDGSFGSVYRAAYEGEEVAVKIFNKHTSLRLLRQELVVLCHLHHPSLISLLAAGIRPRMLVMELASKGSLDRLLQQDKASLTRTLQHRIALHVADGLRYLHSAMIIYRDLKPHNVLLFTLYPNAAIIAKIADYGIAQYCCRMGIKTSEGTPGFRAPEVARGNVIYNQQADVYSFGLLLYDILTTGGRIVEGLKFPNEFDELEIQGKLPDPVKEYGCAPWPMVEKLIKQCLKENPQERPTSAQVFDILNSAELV

As for `CNc1nc(Nc2ccc3c4c2cnn4CCCO3)ncc1C(F)(F)F` [Example 161], the half-maximal inhibitory concentration (IC50) was below 50 nM.

The compound `CNc1nc(Nc2c(C)ccc3[nH]ncc23)ncc1C(F)(F)F` [Example 23, N4-methyl-N2-(5-methyl-1H-indazol-4-yl)-5-(trifluoromethyl)pyrimidine-2,4-diamine] displayed an IC50 of 50 to 200 nM.

`CNc1nc(Nc2cccc3nncn23)ncc1C(F)(F)F` [Example 124, N^4-methyl-N^2-([1,2,4]triazolo[4,3-a]pyridin-5-yl)-5-(trifluoromethyl) pyrimidine-2,4-diamine] registered an IC50 of at least 200 nM.

With `CNc1nc(Nc2cnn3ccc(C#N)cc23)ncc1C(F)(F)F` [Example 118, 3-[[4-(methylamino)-5-(trifluoromethyl)pyrimidin-2-yl]amino]pyrazolo[1,5-a]pyridine-5-carbonitrile], the half-maximal inhibitory concentration (IC50) was below 50 nM.

Compound `CS(=O)(=O)CCn1ncc2c(Nc3ncc(C(F)F)c(NC4CC4)n3)cccc21` [Example 192, N^4-cyclopropyl-5-(difluoromethyl)-N^2-[1-(2-methylsulfonylethyl)indazol-4-yl]pyrimidine-2,4-diamine] came in with an IC50 below 50 nM.

`CC(C)Nc1nc(Nc2cccc3c2cnn3CC#N)ncc1C(F)(F)F` [Example 110, 2-(4-((4-(isopropylamino)-5-(trifluoromethyl)pyrimidin-2-yl)amino)-1H-indazol-1-yl)acetonitrile] registered an IC50 of at least 200 nM.

Consider `CNc1nc(Nc2ccc3nn(C)cc3c2)ncc1C(F)(F)F` [Example 74, N4-methyl-N2-(2-methyl-2H-indazol-5-yl)-5-(trifluoromethyl)pyrimidine-2,4-diamine], for which the concentration for half-maximal inhibition (IC50) was below 50 nM.

In turn, `CNc1nc(Nc2ccc(C3=CCOCC3)c3c2cnn3C)ncc1C(F)(F)F` [Example 86, N2-(7-(3,6-dihydro-2H-pyran-4-yl)-1-methyl-11H-indazol-4-yl)-N4-methyl-5-(trifluoromethyl)pyrimidine-2,4-diamine] returned a half-inhibitory concentration (IC50) below 50 nM.

`CNc1nc(Nc2ccc(CCC(=O)N3CCOCC3)c3c2cnn3C)ncc1C(F)(F)F` [Example 58, 3-(1-methyl-4-((4-(methylamino)-5-(trifluoromethyl)pyrimidin-2-yl)amino)-1H-indazol-7-yl)-1-morpholinopropan-1-one] displayed an IC50 below 50 nM.

In the case of `CS(=O)(=O)CCn1ncc2c(Nc3ncc(C(F)(F)F)c(N[C@H]4C[C@@H]4F)n3)cccc21` [Example 199, N^4-((1S,2S)-2-fluorocyclopropyl)-N^2-(1-(2-(methylsulfonyl)ethyl)-1H-indazol-4-yl)-5-(trifluoromethyl)pyrimidine-2,4-diamine], the concentration for half-maximal inhibition (IC50) was below 50 nM.

As for `COCCn1ncc2c(Nc3ncc(C(F)(F)F)c(NC4CC4)n3)cccc21` [Example 133, N^4-cyclopropyl-N^2-[1-(2-methoxyethyl)indazol-4-yl]-5-(trifluoromethyl) pyrimidine-2,4-diamine], the IC50 was below 50 nM.

`CNc1nc(Nc2ccc3cn[nH]c3c2)ncc1C(F)(F)F` [Example 1, N2-(1H-indazol-6-yl)-N4-methyl-5-(trifluoromethyl)pyrimidine-2,4-diamine] yielded an IC50 below 50 nM.

The compound `FC(F)Cn1ncc2c(Nc3ncc(C(F)(F)F)c(NC4CC4)n3)cccc21` [Example 134, N^4-cyclopropyl-N2-[1-(2,2-difluoroethyl)indazol-4-yl]-5-(trifluoromethyl) pyrimidine-2,4-diamine] came in with a concentration for half-maximal inhibition (IC50) below 50 nM.

The compound `CCNc1nc(Nc2cccc3c2cnn3C)ncc1C(F)(F)F` [Example 69, N4-ethyl-N2-(1-methyl-1H-indazol-4-yl)-5-(trifluoromethyl)pyrimidine-2,4-diamine] returned a concentration for half-maximal inhibition (IC50) below 50 nM.

Compound `CNc1nc(Nc2ccc3cnn(C)c3c2OC)ncc1C(F)(F)F` [Example 14, N2-(7-methoxy-1-methyl-1H-indazol-6-yl)-N4-methyl-5-(trifluoromethyl)pyrimidine-2,4-diamine] came in with an IC50 of 50 to 200 nM.

The compound `CNc1nc(Nc2ccc3c(cnn3C)c2)ncc1C(F)(F)F` [Example 73, N4-methyl-N2-(1-methyl-1H-indazol-5-yl)-5-(trifluoromethyl)pyrimidine-2,4-diamine] returned an IC50 below 50 nM.

As to `CC(C)(C#N)n1ncc2c(Nc3ncc(C(F)(F)F)c(NC4CCC4)n3)cccc21` [Example 113, 2-(4-((4-(cyclobutylamino)-5-(trifluoromethyl)pyrimidin-2-yl)amino)-1H-indazol-1-yl)-2-methylpropanenitrile], the half-maximal inhibitory concentration (IC50) was below 50 nM.

Take `CNc1nc(Nc2ccc3cn(C)nc3c2)ncc1C(F)(F)F` [Example 17, N4-methyl-N2-(2-methyl-2H-indazol-6-yl)-5-(trifluoromethyl)pyrimidine-2,4-diamine]: the 50% inhibitory concentration (IC50) is below 50 nM.

The compound `CNc1nc(Nc2ccc(C3CCOCC3)c3c2cnn3CC#N)ncc1C(F)(F)F` [Example 89, 2-(4-((4-(methylamino)-5-(trifluoromethyl)pyrimidin-2-yl)amino)-7-(tetrahydro-2H-pyran-4-yl)-1H-indazol-1-yl)acetonitrile] gave a concentration for half-maximal inhibition (IC50) below 50 nM.

As for `CNc1nc(Nc2c(C)ccc3nn(C)cc23)ncc1C(F)(F)F` [Example 39, N2-(2,5-dimethyl-2H-indazol-4-yl)-N4-methyl-5-(trifluoromethyl)pyrimidine-2,4-diamine], the half-maximal inhibitory concentration (IC50) is at least 200 nM.

`CNc1nc(Nc2ccnc3ccnn23)ncc1C(F)(F)F` [Example 115, N^4-methyl-N^2-pyrazolo[1,5-a]pyrimidin-7-yl-5-(trifluoromethyl)pyrimidine-2,4-diamine] had an IC50 of at least 200 nM.

As to `CNc1nc(Nc2cccc3c2cnn3CC(C)(C)O)nc2[nH]cnc12` [Example 184, 2-methyl-1-[4-[[6-(methylamino)-9H-purin-2-yl]amino]indazol-1-yl]propan-2-ol], the IC50 was below 50 nM.

Compound `OCCNc1nc(Nc2cccc3c2cnn3CC(F)F)ncc1C(F)(F)F` [Example 141, 2-[[2-[[1-(2,2-difluoroethyl)indazol-4-yl]amino]-5-(trifluoromethyl)pyrimidin-4-yl]amino]ethanol] came in with an IC50 below 50 nM.

In the case of `CNc1nc(Nc2ccc(Cl)c3c2cnn3CC#N)ncc1C(F)(F)F` [Example 111, 2-(7-chloro-4-((4-(methylamino)-5-(trifluoromethyl)pyrimidin-2-yl)amino)-1H-indazol-1-yl)acetonitrile], the IC50 was below 50 nM.

Compound `CNc1nc(Nc2cc(F)cc3c2cnn3C)ncc1C(F)(F)F` [Example 42, N2-(6-fluoro-1-methyl-1H-indazol-4-yl)-N4-methyl-5-(trifluoromethyl) pyrimidine-2,4-diamine] came in with an IC50 below 50 nM.

`N#CCn1ncc2c(Nc3ncc(C(F)(F)F)c(NC4CC(F)(F)C4)n3)cccc21` [Example 96, 2-(4-((4-((3,3-difluorocyclobutyl)amino)-5-(trifluoromethyl)pyrimidin-2-yl)amino)-1H-indazol-1-yl)acetonitrile] registered an IC50 below 50 nM.

Compound `CNc1nc(Nc2cc(C)cc3[nH]ncc23)ncc1C(F)(F)F` [Example 24, N4-methyl-N2-(6-methyl-1H-indazol-4-yl)-5-(trifluoromethyl)pyrimidine-2,4-diamine] had an IC50 below 50 nM.

The compound `CS(=O)(=O)CCn1ncc2c(Nc3nc(NC4CC4)c4c(Cl)c[nH]c4n3)cccc21` [Example 203, 5-chloro-N^4-cyclopropyl-N^2-(1-(2-(methylsulfonyl)ethyl)-1H-indazol-4-yl)-7H-pyrrolo[2,3-d]pyrimidine-2,4-diamine] registered an IC50 below 50 nM.
